Counter-ions that a name gives are not always drawn. Like-named read-outs stand apart in the source and are kept apart here.
Test system: hypotension induced by PAF
Assay: Inhibition of the hypotensive effect induced by PAF in normotense rats
Assay type: in vivo, Sprage Dawley rats
Details: Rattus norvegicus, iv
[1] = i.v. (femoral vein) 3 min before PAF 0.5 mcg/Kg i.v., anesthetized male rats, mean arterial pressure, read-out: ID50 (the source's name)

Procedure: Inhibition of the hypotensive effect induced by PAF in normotense rats.
Male Sprage Dawley rats, of 180-220 g of weight, anesthetized with sodium pentobarbital (50 mg/Kg, i.p. 1 mU100 g) have been used. In order to measure the average arterial pressure, a polyethylene catheter is introduced into the carotid artery. The arterial pressure is recorded with the help of a transducer connected with a R611 Beckman polygraph. The tested compounds are administered through the femoral vein 3 min. before the injection of PAF (0.5 mcg/Kg, i.v.).

Compound: Cl.Cl.N#CC(c1cccnc1)N1CCN(C(=O)c2ccc3ccccc3c2)CC1 (stereo not shown) [Compound 1, 1-(2-Naphthoyl)-4-(3-pyridylcyanomethyl)piperazine, dihydrochloride]
- ED50 [1]: 5 mg/kg

Compound: N#CC(c1cccnc1)N1CCN(C(=O)Cc2cccc3ccccc23)CC1 (stereo not shown) [Compound 2, 1-(1-Naphthylacetyl)-4-(3-pyridylcyanomethyl)piperazine]
- ED50 (read-out: ID50): 1.3 mg/kg

Compound: N#CC(c1cccnc1)N1CCN(C(=O)Cc2ccccc2)CC1 (stereo not shown) [Compound 5, 1-(Phenylacetyl)-4-(3-pyridylcyanomethyl)piperazine]
- ED50 (read-out: ID50): 1.5 mg/kg

Compound: N#CC(c1cccnc1)N1CCN(C(=O)CCc2ccccc2)CC1 (stereo not shown) [Compound 6, 1-(3-Phenylpropanoyl)-4-(3-pyridylcyanomethyl)piperazine, dichlorhydrate]
- ED50 [1]: 1.2 mg/kg

Compound: N#CC(c1cccnc1)N1CCN(C(=O)CCCc2ccccc2)CC1 (stereo not shown) [Compound 7, 1-(4-Phenylbutanoyl)-4-(3-pyridylcyanomethyl)piperazine]
- ED50 [1]: 5 mg/kg

Compound: CC(C(=O)N1CCN(C(C#N)c2cccnc2)CC1)(c1ccccc1)c1ccccc1.Cl.Cl (stereo not shown) [Compound 8, 1-(2,2-Diphenylpropanoyl)-4-(3-pyridylcyanomethyl)piperazine, dihydrochloride]
- ED50 [1]: 0.14 mg/kg

Compound: Cl.Cl.N#CC(c1cccnc1)N1CCN(C(=O)C(c2ccccc2)c2ccccc2)CC1 (stereo not shown) [Compound 9, 1-(Diphenylacetyl)-4-(3-pyridylcyanomethyl)piperazine, dihydrochloride]
- ED50 [1]: 0.11 mg/kg

Compound: N#CC(c1cccnc1)N1CCN(C(=O)C(Cc2ccccc2)c2ccccc2)CC1 (stereo not shown) [Compound 10, 1-(2,3-Diphenylpropanoyl)-4-(3-pyridylcyanomethyl)piperazine]
- ED50 [1]: 0.12 mg/kg

Compound: N#CC(c1cccnc1)N1CCN(C(=O)C(CCc2ccccc2)c2ccccc2)CC1 (stereo not shown) [Compound 11, 1-(2,4-Diphenylbutanoyl)-4-(3-pyridylcyanomethyl)piperazine]
- ED50 [1]: 0.73 mg/kg

Compound: N#CC(c1cccnc1)N1CCN(C(=O)CC(c2ccccc2)c2ccccc2)CC1 (stereo not shown) [Compound 12, 1-(3,3-Diphenylpropanoyl)-4-(3-pyridylcyanomethyl)piperazine]
- ED50 [1]: 0.016 mg/kg

Compound: N#CC(c1cccnc1)N1CCN(C(=O)C(Cc2ccccc2)Cc2ccccc2)CC1 (stereo not shown) [Compound 13, 1-(2-Phenylmethyl-3-phenylpropanoyl)-4-(3-pyridylcyanomethyl) piperazine, dichlorhydrate]
- ED50 [1]: 0.68 mg/kg

Compound: CC(C(=O)N1CCN(C(C#N)c2cccnc2)CC1)c1ccccc1.Cl.Cl (stereo not shown) [Compound 14, 1-(2-Phenylpropanoyl)-4-(3-pyridylcyanomethyl)piperazine, dihydrochloride]
- ED50 [1]: 0.26 mg/kg

Compound: N#CC(c1cccnc1)N1CCN(C(=O)C=Cc2ccccc2)CC1 (stereo not shown) [Compound 15, 1-(3-Phenylpropenoyl)-4-(3-pyridylcyanomethyl)piperazine, dichlorhydrate]
- ED50 [1]: 0.24 mg/kg

Compound: N#CC(c1cccnc1)N1CCN(C(=O)C(=Cc2ccccc2)c2ccccc2)CC1 (stereo not shown) [Compound 16, 1-(2,3-Diphenylpropenoyl)-4(3-pyridylcyanomethyl)piperazine]
- ED50 [1]: 0.17 mg/kg

Compound: N#CC(c1cccnc1)N1CCN(C(=O)C=C(c2ccccc2)c2ccccc2)CC1 (stereo not shown) [Compound 17, 1-(3,3-Diphenylpropenoyl)-4-(3-pyridylcyanomethyl)piperazine]
- ED50 [1]: 0.049 mg/kg

Compound: CCCCCCCC(=O)N1CCN(C(C#N)c2cccnc2)CC1.Cl (stereo not shown) [Compound 19, 1-(Octanoyl)-4-(3-pyridylcyanomethyl)piperazine hydrochloride]
- ED50 [1]: 1.2 mg/kg

Compound: COc1cc(C(=O)N2CCN(C(C#N)c3cccnc3)CC2)cc(OC)c1OC.Cl.Cl (stereo not shown) [Compound 22, 1-(3,4,5-Trimethoxybenzoyl)-4-(3-pyridylcyanomethyl)piperazine, dihydrochloride]
- ED50 [1]: 4.3 mg/kg

Compound: COc1ccc(C(CC(=O)N2CCN(C(C#N)c3cccnc3)CC2)c2ccc(OC)cc2)cc1 (stereo not shown) [Compound 25, 1-(3,3-bis(4-methoxyphenyl)propanoyl)-4-(3-pyridylcyanomethyl) piperazine]
- ED50 [1]: 0.19 mg/kg

Compound: COc1ccc(C(=CC(=O)N2CCN(C(C#N)c3cccnc3)CC2)c2ccc(OC)cc2)cc1.Cl.Cl (stereo not shown) [Compound 26, 1-(3,3-bis(4-methoxyphenyl)propenoyl)-4-(3-pyridylcyanomethyl)piperazine, dihydrochloride]
- ED50 [1]: 0.17 mg/kg

Compound: Cl.Cl.N#CC(c1cccnc1)N1CCN(C(=O)C(O)c2ccccc2)CC1 (stereo not shown) [Compound 27, 1-(2-phenyl-2-hydroxyacetyl)-4-(3-pyridylcyanomethyl)piperazine, dihydrochloride]
- ED50 [1]: 1.1 mg/kg

Compound: N#CC(c1cccnc1)N1CCN(C(=O)CC(O)(c2ccccc2)c2ccccc2)CC1 (stereo not shown) [Compound 28, 1-(3,3-Diphenyl-3-hydroxypropanoyl)-4-(3-pyridylcyanomethyl)piperazine]
- ED50 [1]: 0.061 mg/kg

Compound: N#CC(c1ccncc1)N1CCN(C(=O)CC(O)(c2ccccc2)c2ccccc2)CC1 (stereo not shown) [Compound 29, 1-(3,3-Diphenyl-3-hydroxypropanoyl)-4-(4-pyridylcyanomethyl)piperazine]
- ED50 [1]: 0.061 mg/kg

Compound: Cl.Cl.N#CC(c1cccnc1)N1CCN(C(=O)OCC(c2ccccc2)c2ccccc2)CC1 (stereo not shown) [Compound 31, 1-((2,2-diphenylethoxy)carbonyl)-4-(3-pyridylcyanomethyl)piperazine, dihydrochloride]
- ED50 [1]: 0.078 mg/kg

Compound: Cl.Cl.Cl.N#CC(c1cccnc1)N1CCN(C(=O)Cc2c[nH]c3ccccc23)CC1 (stereo not shown) [Compound 33, 1-(3-indolylacetyl)-4-(3-pyridylcyanomethyl)piperazine, trihydrochloride]
- ED50 (read-out: ID50): 3.5 mg/kg

Compound: Cl.Cl.Cl.N#CC(c1cccnc1)N1CCN(C(=O)CNc2cccc3ccccc23)CC1 (stereo not shown) [Compound 34, 1-(N-(1-naphthyl)aminoacetyl)-4-(3-pyridylcyanomethyl)piperazine, trihydrochloride]
- ED50 [1]: 3 mg/kg

Compound: N#CC(c1cccnc1)N1CCN(C(=O)CN(Cc2ccccc2)c2ccccc2)CC1 (stereo not shown) [Compound 38, 1-(N-benzyl-N-phenylaminoacetyl)-4-(3-pyridylcyanomethyl)piperazine]
- ED50 [1]: 0.42 mg/kg

Compound: N#CC(c1cccnc1)N1CCN(C(=O)CN(CCCc2ccccc2)Cc2ccccc2)CC1 (stereo not shown) [Compound 41, 1-(N-benzyl-N-(3-phenylpropyl)aminoacetyl)-4-(3-pyridylcyanomethyl) piperazine, trihydrochloride]
- ED50 [1]: 1.5 mg/kg

Compound: N#CC(c1cccnc1)N1CCN(C(=O)CNC(c2ccccc2)c2ccccc2)CC1 (stereo not shown) [Compound 44, 1-(N-(diphenylmethyl)aminoacetyl)-4-(3-pyridylcyanomethyl) piperazine, trihydrochloride]
- ED50 [1]: 0.023 mg/kg

Compound: CN(CC(=O)N1CCN(C(C#N)c2cccnc2)CC1)C(c1ccccc1)c1ccccc1 (stereo not shown) [Compound 45, 1-(N-diphenylmethyl-N-methylaminoacetyl)-4-(3-pyridylcyanomethyl) piperazine, trihydrochloride]
- ED50 [1]: 0.33 mg/kg

Compound: N#CC(c1cccnc1)N1CCN(C(=O)CNC(c2ccccc2)c2ccc(Cl)cc2)CC1 (stereo not shown) [Compound 46, 1-(N-(1-(4-chlorophenyl)-1-phenylmethyl)aminoacetyl)-4-(3-pyridylcyanomethyl) piperazine, trihydrochloride]
- ED50 [1]: 0.13 mg/kg

Compound: N#CC(c1cccnc1)N1CCN(C(=O)CCNC(c2ccccc2)c2ccccc2)CC1 (stereo not shown) [Compound 47, 1-(3-(N-(diphenylmethyl)amino)propanoyl)-4-(3-pyridylcyanomethyl) piperazine]
- ED50 [1]: 0.025 mg/kg

Compound: N#CC(c1ccncc1)N1CCN(C(=O)CCNC(c2ccccc2)c2ccccc2)CC1 (stereo not shown) [Compound 48, 1-(3-(N-(diphenylmethyl)amino)propanoyl)-4-(4-pyridylcyanomethyl)piperazine]
- ED50 [1]: 0.037 mg/kg

Compound: Cl.Cl.Cl.N#CC(c1cccnc1)N1CCN(C(=O)CN(Cc2ccccc2)Cc2ccccc2)CC1 (stereo not shown) [Compound 49, 1-(N,N-dibenzylaminoacetyl)-4-(3-pyridylcyanomethyl)piperazine, trihydrochloride]
- ED50 [1]: 1.7 mg/kg

Compound: Cl.Cl.Cl.N#CC(c1cccnc1)N1CCN(C(=O)CNC(Cc2ccccc2)c2ccccc2)CC1 (stereo not shown) [Compound 52, 1-(N-(1,2-diphenylethyl)aminoacetyl)-4-(3-pyridylcyanomethyl)piperazine, trihydrochloride]
- ED50 [1]: 0.34 mg/kg

Compound: N#CC(c1ccncc1)N1CCN(C(=O)CNC(=O)C(c2ccccc2)c2ccccc2)CC1 (stereo not shown) [Compound 57, 1-(N-(diphenylacetyl)aminoacetyl)-4-(4-pyridylcyanomethyl)piperazine]
- ED50 [1]: 0.47 mg/kg

Compound: N#CC(c1cccnc1)N1CCN(CCNC(=O)C(c2ccccc2)c2ccccc2)CC1 (stereo not shown) [Compound 62, 1-(2-(N-(diphenylacetyl)amino)ethyl)-4-(3-pyridylcyanomethyl)piperazine]
- ED50 [1]: 0.29 mg/kg

Compound: Cl.Cl.N#CC(c1ccncc1)N1CCN(C(=O)CC(c2ccccc2)c2ccccc2)CC1 (stereo not shown) [Compound 67, 1-(3,3-diphenylpropanoyl)-4-(4-pyridylcyanomethyl)piperazine, dihydrochloride]
- ED50 [1]: 0.034 mg/kg
